Measurements from article PMC2099433, “The binding site for neohesperidin dihydrochalcone at the human sweet taste receptor” (BMC Structural Biology, 2007).
Residue numbers refer to the chain shown, from its start. Where a SMILES comes first, the peptide text is derived from it.

Tests used:
[1] = molecular target: T1, hTAS1R2 + hTAS1R3 C801L^7.39 (Homo sapiens, UniProt Q7RTX0+Q8TE23, C801L); assay: Calcium response (FLIPR), hTAS1R3 mutant coexpressed with hTAS1R2; assay type: cell-based; details: for receptor activation: mutant C801L^7.39; for EC50: variant C801L^7.39, n.f. = no response to any tested sweetener
T1 construct: expressed in transfected cells; host or cells: HEK293T cells stably expressing G16Gust44
T1 sequence (Q7RTX0 21-852 C801L): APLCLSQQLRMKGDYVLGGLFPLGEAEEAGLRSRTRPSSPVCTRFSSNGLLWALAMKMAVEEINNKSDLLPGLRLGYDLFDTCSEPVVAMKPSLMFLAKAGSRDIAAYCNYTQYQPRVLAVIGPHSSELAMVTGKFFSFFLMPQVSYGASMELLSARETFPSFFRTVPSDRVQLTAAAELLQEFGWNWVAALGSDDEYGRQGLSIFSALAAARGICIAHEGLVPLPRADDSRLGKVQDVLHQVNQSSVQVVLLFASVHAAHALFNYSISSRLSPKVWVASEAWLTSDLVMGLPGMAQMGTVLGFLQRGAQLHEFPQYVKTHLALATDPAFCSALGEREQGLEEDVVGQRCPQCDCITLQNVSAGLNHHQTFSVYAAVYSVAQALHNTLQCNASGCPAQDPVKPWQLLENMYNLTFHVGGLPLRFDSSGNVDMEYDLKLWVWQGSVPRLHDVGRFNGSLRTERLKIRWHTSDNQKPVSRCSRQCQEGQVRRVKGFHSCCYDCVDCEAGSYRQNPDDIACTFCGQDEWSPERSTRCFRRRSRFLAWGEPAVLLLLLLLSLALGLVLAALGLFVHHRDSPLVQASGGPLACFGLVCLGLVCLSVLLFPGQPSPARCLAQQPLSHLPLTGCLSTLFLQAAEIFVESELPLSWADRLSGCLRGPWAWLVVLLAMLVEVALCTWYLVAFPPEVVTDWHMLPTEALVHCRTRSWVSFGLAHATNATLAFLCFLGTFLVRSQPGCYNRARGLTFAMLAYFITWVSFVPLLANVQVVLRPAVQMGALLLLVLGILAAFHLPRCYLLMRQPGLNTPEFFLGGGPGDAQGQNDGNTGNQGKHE
T1 sequence (Q8TE23 20-839): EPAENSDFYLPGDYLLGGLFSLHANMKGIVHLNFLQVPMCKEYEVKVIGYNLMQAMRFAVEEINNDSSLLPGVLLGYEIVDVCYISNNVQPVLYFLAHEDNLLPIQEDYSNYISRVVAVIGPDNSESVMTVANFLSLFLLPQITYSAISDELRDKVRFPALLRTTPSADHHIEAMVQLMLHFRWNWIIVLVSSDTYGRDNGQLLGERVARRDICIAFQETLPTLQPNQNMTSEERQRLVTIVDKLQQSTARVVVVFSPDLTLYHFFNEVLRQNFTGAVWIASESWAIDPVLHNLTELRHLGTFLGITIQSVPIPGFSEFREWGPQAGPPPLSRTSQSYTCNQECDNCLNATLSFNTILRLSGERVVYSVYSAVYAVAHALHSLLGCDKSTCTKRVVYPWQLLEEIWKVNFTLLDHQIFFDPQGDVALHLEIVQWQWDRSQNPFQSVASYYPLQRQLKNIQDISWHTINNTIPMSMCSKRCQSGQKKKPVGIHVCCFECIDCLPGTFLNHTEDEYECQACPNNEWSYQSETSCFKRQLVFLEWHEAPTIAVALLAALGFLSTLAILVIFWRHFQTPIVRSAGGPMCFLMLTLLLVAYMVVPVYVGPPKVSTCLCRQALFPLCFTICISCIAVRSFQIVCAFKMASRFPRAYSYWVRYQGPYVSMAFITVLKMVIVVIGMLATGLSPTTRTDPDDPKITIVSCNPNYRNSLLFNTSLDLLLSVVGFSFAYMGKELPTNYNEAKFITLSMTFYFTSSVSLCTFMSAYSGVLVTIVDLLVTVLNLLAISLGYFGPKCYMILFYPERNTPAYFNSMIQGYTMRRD
Experimental: (§1) The cDNAs for TAS1Rs tagged at the C-terminus with the herpes simplex virus glycoprotein D (HSV) were transiently transfected into HEK293T cells stably expressing the chimeric G-protein subunit G16Gust44 [44] using Lipofectamine 2000 (Invitrogen, Carlsbad, CA) according to the manufacturer's protocol. 3–4 hours after transfection, DMEM was replaced by low-glucose DMEM supplemented with GlutaMAX and 10% dialyzed FBS (Invitrogen, Carlsbad, CA). 24 h post transfection, cells were loaded for 1 h with the calcium sensitive dye Fluo4-AM (2 μg/ml in DMEM, Molecular Probes, Carlsbad, CA). […] We monitored calcium mobilization following receptor stimulation with sweet tastants by an automated fluorometric imaging plate reader (FLIPR, Molecular Devices, Sunnyvale, CA). Compounds used as stimuli (Sigma-Aldrich, St. Louis, MO; Merck, Whitehouse Station, NJ) were dissolved in C1 solution. All data were collected from at least three independent experiments carried out in duplicate. The obtained calcium signals were corrected for the response of mock transfected cells and normalized to the fluorescence of cells prior to the application of the stimulus using ΔF/F = (F-F0)/F0.

[2] = molecular target: T2, hTAS1R2 + hTAS1R3 S726A^5.39 (Homo sapiens, UniProt Q7RTX0+Q8TE23, S726A); assay: as above; assay type: cell-based; details: variant S726A^5.39; for Emax: read-out: maximal signal (% of wt)
T2 construct: expressed in transfected cells; host or cells: HEK293T cells stably expressing G16Gust44
T2 sequence (Q7RTX0 21-852 S726A): T1 sequence (Q7RTX0 21-852 C801L) with S706A, L781C
T2 sequence (Q8TE23 20-839): T1 sequence (Q8TE23 20-839)
Experimental: as §1

Row | receptor activation [1] | EC50 [1] | EC50 [2] [µM] | Emax [2] [%] | SMILES
1 | could not be activated | n.f. | 900 ± 300 | 60 ± 50 | COc1ccc(CCC(=O)c2c(O)cc(O[C@@H]3O[C@H](CO)[C@@H](O)[C@H](O)[C@H]3O[C@@H]3O[C@@H](C)[C@H](O)[C@@H](O)[C@H]3O)cc2O)cc1O [NHDC, neohesperidin dihydrochalcone]
2 | could not be activated |  |  |  | CC1=CC(=O)NS(=O)(=O)O1 [acesulfame K]
3 | could not be activated | n.f. | 900 ± 300 | 50 ± 2 | COC(=O)[C@H](Cc1ccccc1)NC(=O)[C@@H](N)CC(=O)O [aspartame] (HELM PEPTIDE1{D.F.[CO[*:1]]}$$$$V2.0)
4 | could not be activated |  | > 10000 |  | O=S(=O)(O)NC1CCCCC1 [cyclamate]
